Assay results: patent US8969568B2, “Substituted naphthyridines and their use as medicaments” (Boehringer Ingelheim Pharma GmbH & Co. KG, priority 2010, dated 2015)

What follows are molecules tested against Recombinant human Syk (amino acids 342-635), GST-Syk kinase fusion protein (Homo sapiens (Human), UniProt P43405) (assay: Syk Kinase Test (Kinase Glo luminescence)). Conditions: read-out: IC50-value, GST-Syk 4 nM final, ATP remaining, 60 minutes at room temperature.
Protocol: The catalytic activity of the GST-Syk kinase fusion protein was determined using the Kinase Glo® Luminescence Kinase test (Promega; V6712). In this homogeneous test the amount of ATP remaining after the kinase reaction is quantified by a luciferin-luciferase reaction using luminescence. The luminescence signal obtained correlates with the amount of ATP still present and thus correlates inversely with the activity of the protein kinase.
GST-Syk was diluted to 6.0 nM in the test buffer and 10 μl of this dilution were used in the kinase test (final concentration of Syk=4 nM in a total volume of 15 μl).
Positive controls are the reaction mixtures that contain no test substance; negative controls (blanks) are reaction mixtures that contain no kinase.
After 60 minutes, 10 μl Kinase-Glo® solution (Promega, Cat. #V6712) (heated to room temperature) were added to each well and incubation was continued for a further 15 minutes. The plates were read in a Microplate Scintillation and Luminescence Counter (Canberra Packard GmbH).
Data Evaluation and Calculation:
The output file of the “Counter” is a text file that contains the well number and measured counts in two columns. […] Based on this values the % inherent value for the measurement of each substance concentration was calculated using an “MS-Excel—VB macro”. […] The IC50 values were calculated from the % inhibition values using “GraphPadPrism” software (Version 5) (GraphPad Software Inc.).

SMILES	IC50 [nM]
COc1cc(-c2cc3ncccc3c(O[C@H](C)[C@H]3CNC(=O)C3)n2)ccc1OC1CCOCC1 [Example 63]	< 0.1
COc1cc(-c2cc3ncccc3c(OC[C@H]3CNC(=O)C3)n2)cc(OC)c1OC1CCOCC1 [Example 44]	16.1
COc1cc(-c2cc3ncccc3c(O[C@H](C)[C@H]3CNC(=O)C3)n2)cc(OC)c1OC [Example 35, (R)-4-[(R)-1-[7-(3,4,5-Trimethoxy-phenyl)-[1,6]naphthyridin-5-yloxy]-ethyl]-pyrrolidin-2-one]	0.2
